{
  "source": "paper PMC11233931",
  "about": "“Remodeling tumor‐associated macrophage for anti‐cancer effects by rational design of irreversible inhibition of mitogen‐activated protein kinase‐activated protein kinase 2” (MedComm, 2024)",
  "assay_in_all_cases": "Eurofins kinase selectivity profile against 380 other human recombinant kinases (Table S2)",
  "format_in_all_cases": "biochemical",
  "key": {"[1]": {"target": "T1, 380 human recombinant protein kinases (Homo sapiens, UniProt P29597)", "T1 construct": "purchased Eurofins (Celle Lévescault)", "T1 sequence (P29597 whole entry)": "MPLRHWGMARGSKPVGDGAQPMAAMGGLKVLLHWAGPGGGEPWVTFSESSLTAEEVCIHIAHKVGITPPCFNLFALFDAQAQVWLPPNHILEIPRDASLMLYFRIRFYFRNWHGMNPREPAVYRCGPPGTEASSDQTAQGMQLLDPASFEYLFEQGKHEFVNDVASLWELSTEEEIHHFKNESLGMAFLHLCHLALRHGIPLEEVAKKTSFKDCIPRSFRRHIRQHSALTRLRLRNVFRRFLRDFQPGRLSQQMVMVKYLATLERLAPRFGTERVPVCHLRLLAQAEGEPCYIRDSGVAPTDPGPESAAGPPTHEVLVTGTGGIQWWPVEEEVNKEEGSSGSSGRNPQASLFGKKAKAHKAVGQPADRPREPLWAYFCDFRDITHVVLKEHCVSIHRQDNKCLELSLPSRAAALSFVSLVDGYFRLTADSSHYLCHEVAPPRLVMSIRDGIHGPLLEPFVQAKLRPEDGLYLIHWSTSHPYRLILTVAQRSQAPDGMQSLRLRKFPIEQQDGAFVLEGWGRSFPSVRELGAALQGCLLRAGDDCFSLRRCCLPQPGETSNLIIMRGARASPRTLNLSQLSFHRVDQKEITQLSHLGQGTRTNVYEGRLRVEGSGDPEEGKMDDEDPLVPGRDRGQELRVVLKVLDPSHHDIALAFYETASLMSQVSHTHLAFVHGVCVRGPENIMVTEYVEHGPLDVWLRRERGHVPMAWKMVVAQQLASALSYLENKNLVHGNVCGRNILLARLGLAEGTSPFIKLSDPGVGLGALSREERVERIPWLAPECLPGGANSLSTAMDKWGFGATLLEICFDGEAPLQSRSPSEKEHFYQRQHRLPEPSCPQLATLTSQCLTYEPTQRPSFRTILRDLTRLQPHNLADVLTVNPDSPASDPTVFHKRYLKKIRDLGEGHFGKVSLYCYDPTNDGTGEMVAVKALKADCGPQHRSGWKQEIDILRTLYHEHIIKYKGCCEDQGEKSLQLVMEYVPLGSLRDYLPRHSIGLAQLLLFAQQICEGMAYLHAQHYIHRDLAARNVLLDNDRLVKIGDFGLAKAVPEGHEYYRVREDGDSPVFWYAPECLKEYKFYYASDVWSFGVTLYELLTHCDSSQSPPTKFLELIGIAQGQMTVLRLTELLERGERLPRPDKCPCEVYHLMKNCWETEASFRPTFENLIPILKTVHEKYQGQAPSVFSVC", "conditions": "TYK2(h), read-out: Inhibition rate (%)", "how_it_was_run": "(§1)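 Outsourced panel: 380 human recombinant kinases; inhibitor tested at various concentrations; purpose: MK2 selectivity check.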"}, "[2]": {"target": "T2, 380 human recombinant protein kinases (Homo sapiens, UniProt P51813)", "T2 construct": "purchased Eurofins (Celle Lévescault)", "T2 sequence (P51813 1-675)": "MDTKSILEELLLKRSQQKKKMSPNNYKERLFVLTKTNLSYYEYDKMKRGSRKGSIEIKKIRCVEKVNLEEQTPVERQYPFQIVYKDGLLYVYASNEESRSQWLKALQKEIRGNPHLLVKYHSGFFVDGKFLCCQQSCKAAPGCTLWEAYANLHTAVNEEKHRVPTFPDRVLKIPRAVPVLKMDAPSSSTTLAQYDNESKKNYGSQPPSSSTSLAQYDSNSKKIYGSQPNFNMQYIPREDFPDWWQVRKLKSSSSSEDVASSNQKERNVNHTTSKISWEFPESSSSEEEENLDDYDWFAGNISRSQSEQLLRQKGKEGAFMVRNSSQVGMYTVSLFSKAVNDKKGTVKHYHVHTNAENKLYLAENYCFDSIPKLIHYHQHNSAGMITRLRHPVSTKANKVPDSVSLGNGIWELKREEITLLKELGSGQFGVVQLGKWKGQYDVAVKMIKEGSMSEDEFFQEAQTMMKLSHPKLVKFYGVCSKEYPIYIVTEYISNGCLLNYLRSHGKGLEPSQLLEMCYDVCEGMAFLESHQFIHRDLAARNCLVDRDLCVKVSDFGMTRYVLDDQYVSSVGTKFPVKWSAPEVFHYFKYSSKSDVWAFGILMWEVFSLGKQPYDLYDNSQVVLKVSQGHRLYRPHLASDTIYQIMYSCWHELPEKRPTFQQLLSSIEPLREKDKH", "conditions": "Bmx(h), read-out: Inhibition rate", "how_it_was_run": "as §1"}, "[3]": {"target": "T3, 380 human recombinant protein kinases (Homo sapiens, UniProt P54753)", "T3 construct": "purchased Eurofins (Celle Lévescault)", "T3 sequence (P54753 34-998)": "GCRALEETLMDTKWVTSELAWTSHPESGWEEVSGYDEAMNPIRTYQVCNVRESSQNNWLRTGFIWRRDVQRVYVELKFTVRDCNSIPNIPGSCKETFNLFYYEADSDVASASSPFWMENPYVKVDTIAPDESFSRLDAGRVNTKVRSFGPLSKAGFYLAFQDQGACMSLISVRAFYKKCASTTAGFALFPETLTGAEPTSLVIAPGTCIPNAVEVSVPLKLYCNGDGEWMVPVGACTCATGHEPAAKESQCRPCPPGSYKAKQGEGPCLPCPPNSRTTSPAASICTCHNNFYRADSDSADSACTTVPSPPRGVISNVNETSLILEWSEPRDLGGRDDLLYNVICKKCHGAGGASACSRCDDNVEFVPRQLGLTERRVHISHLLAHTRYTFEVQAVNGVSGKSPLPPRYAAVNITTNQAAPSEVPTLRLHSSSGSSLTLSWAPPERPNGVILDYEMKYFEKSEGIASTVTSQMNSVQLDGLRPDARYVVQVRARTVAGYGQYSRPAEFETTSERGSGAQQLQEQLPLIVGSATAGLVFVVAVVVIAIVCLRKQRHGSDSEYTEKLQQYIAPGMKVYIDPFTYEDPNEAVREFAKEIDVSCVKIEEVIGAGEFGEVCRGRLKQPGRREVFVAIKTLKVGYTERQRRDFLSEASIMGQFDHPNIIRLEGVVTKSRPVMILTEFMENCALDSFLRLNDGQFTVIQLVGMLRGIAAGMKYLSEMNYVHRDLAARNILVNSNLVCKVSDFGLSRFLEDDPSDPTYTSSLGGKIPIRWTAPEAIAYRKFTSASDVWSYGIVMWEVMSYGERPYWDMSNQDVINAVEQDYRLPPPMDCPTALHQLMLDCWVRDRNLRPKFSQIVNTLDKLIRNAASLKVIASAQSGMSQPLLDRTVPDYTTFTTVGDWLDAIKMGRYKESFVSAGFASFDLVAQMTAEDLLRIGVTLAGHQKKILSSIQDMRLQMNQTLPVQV", "conditions": "EphB3(h), read-out: Inhibition rate", "how_it_was_run": "as §1"}, "[4]": {"target": "T4, 380 human recombinant protein kinases (Homo sapiens, UniProt Q5S007)", "T4 construct": "purchased Eurofins (Celle Lévescault)", "T4 sequence (Q5S007 whole entry)": "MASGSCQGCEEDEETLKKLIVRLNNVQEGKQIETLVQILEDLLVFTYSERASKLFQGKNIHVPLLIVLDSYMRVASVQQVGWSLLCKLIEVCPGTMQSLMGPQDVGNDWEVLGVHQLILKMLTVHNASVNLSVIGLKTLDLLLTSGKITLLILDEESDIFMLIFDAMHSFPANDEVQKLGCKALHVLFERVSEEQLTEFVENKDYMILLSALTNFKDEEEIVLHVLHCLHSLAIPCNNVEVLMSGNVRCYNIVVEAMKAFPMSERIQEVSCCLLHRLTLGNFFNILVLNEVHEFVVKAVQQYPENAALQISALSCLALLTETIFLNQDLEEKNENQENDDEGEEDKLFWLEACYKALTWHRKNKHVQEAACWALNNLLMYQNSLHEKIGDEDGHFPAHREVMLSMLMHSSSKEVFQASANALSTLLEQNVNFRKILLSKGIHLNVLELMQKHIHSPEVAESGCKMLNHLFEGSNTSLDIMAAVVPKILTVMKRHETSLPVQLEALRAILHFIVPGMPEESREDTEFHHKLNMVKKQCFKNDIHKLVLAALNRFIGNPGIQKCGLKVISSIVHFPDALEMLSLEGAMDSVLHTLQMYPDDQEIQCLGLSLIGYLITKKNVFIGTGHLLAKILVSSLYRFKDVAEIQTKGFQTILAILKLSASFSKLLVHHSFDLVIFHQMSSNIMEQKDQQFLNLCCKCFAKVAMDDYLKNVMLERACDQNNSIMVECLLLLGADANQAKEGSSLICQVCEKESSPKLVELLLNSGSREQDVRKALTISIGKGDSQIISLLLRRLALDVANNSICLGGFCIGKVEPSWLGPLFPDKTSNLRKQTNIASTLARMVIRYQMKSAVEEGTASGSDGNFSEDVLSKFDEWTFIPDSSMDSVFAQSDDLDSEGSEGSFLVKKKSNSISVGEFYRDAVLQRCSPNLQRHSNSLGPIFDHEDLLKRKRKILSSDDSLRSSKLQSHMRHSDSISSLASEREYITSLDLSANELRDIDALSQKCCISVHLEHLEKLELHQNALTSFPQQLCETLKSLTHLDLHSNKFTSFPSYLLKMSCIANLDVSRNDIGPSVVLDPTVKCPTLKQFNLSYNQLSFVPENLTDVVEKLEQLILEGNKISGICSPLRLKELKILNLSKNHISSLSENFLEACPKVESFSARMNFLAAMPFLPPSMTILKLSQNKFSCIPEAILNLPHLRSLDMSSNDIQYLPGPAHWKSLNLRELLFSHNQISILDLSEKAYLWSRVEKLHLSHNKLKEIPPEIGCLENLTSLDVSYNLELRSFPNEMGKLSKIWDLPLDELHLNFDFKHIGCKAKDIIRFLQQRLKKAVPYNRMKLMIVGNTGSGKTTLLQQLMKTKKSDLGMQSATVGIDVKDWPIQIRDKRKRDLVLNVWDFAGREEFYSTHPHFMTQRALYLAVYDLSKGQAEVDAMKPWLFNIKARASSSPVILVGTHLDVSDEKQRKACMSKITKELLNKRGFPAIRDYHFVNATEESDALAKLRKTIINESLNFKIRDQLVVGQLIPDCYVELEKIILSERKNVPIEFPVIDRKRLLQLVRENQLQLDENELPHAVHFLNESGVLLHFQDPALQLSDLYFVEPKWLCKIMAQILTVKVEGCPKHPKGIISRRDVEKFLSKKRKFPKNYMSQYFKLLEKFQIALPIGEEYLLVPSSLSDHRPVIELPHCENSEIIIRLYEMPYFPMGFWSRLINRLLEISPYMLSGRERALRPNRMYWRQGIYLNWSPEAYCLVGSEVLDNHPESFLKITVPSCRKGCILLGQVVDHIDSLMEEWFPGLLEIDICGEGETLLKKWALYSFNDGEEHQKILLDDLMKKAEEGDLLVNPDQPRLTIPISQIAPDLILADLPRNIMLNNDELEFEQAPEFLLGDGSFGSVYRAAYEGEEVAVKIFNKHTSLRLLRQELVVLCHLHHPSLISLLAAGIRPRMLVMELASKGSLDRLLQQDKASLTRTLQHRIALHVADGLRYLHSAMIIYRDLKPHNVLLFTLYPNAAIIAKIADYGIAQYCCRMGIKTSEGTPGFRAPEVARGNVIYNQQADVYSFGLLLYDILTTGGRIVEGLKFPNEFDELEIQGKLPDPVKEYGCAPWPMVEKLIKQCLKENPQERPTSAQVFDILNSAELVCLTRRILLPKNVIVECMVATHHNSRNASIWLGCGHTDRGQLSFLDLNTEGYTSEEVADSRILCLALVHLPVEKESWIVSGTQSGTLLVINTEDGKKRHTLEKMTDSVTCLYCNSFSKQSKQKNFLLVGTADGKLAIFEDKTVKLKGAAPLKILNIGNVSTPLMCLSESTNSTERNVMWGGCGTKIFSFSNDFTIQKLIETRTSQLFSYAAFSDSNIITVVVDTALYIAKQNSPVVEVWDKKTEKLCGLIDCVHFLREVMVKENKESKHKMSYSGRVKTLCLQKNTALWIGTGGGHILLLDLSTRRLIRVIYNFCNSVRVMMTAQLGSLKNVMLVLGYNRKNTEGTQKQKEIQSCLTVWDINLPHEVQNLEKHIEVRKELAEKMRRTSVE", "conditions": "LRRK2(h), read-out: Inhibition rate", "how_it_was_run": "as §1"}, "[5]": {"target": "T5, 380 human recombinant protein kinases (Homo sapiens, UniProt Q9H422)", "T5 construct": "purchased Eurofins (Celle Lévescault)", "T5 sequence (Q9H422 whole entry)": "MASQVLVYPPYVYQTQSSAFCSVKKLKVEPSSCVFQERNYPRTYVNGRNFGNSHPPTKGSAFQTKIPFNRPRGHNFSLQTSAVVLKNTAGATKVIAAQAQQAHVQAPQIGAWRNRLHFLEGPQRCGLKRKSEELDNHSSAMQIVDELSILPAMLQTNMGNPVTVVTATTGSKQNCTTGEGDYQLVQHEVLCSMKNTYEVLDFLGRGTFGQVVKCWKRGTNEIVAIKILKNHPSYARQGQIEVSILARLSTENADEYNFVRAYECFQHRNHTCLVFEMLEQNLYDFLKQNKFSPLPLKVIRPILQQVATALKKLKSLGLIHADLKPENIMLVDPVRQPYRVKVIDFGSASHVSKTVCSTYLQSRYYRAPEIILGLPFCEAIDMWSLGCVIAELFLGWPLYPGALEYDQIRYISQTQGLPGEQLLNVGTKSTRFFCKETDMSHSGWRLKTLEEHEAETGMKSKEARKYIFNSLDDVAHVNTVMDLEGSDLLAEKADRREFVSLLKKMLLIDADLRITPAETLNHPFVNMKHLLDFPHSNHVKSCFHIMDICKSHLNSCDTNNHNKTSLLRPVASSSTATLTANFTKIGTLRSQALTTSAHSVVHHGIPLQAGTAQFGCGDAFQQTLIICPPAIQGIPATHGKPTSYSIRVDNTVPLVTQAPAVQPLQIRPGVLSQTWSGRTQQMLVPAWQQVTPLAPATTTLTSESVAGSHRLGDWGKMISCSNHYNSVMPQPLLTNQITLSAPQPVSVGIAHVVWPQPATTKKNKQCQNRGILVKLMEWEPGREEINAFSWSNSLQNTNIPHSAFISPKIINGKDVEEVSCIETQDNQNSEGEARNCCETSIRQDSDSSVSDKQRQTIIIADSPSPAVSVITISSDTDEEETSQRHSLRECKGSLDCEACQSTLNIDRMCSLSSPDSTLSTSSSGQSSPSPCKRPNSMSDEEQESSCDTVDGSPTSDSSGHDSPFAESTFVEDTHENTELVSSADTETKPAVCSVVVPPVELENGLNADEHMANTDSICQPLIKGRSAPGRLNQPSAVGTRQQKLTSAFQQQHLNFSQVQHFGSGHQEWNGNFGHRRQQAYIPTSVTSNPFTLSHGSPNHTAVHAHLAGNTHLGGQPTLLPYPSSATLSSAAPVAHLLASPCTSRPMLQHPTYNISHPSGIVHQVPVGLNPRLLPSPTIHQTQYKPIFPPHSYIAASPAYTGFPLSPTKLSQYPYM", "conditions": "HIPK3(h), read-out: Inhibition rate", "how_it_was_run": "as §1"}},
  "data": [
    {"smiles": "C=CC(=O)Nc1cc(-c2cc(-c3cc4c([nH]3)CCNC4=O)ccn2)ccc1OC(F)(F)F", "note": "[compound 11]", "values": [
      {"measurement": "inhibition at 0.01 µM", "setting": "[1]; 10 nM", "result": 1, "unit": "%"},
      {"measurement": "inhibition at 0.1 µM", "setting": "[1]; 100 nM", "result": 10, "unit": "%"},
      {"measurement": "inhibition at 1 µM", "setting": "[1]; 1000 nM", "result": 14, "unit": "%"},
      {"measurement": "inhibition at 0.01 µM", "setting": "[2]; 10 nM", "result": 1, "unit": "%"},
      {"measurement": "inhibition at 0.1 µM", "setting": "[2]; 100 nM", "result": -4, "unit": "%"},
      {"measurement": "inhibition at 1 µM", "setting": "[2]; 1000 nM", "result": -5, "unit": "%"},
      {"measurement": "inhibition at 0.01 µM", "setting": "[3]; 10 nM", "result": 3, "unit": "%"},
      {"measurement": "inhibition at 0.1 µM", "setting": "[3]; 100 nM", "result": -12, "unit": "%"},
      {"measurement": "inhibition at 1 µM", "setting": "[3]; 1000 nM", "result": -1, "unit": "%"},
      {"measurement": "inhibition at 0.01 µM", "setting": "[4]; 10 nM", "result": -4, "unit": "%"},
      {"measurement": "inhibition at 0.1 µM", "setting": "[4]; 100 nM", "result": 17, "unit": "%"},
      {"measurement": "inhibition at 1 µM", "setting": "[4]; 1000 nM", "result": 74, "unit": "%"},
      {"measurement": "inhibition at 0.01 µM", "setting": "[5]; 10 nM", "result": -9, "unit": "%"},
      {"measurement": "inhibition at 0.1 µM", "setting": "[5]; 100 nM", "result": -8, "unit": "%"},
      {"measurement": "inhibition at 1 µM", "setting": "[5]; 1000 nM", "result": 1, "unit": "%"}
    ]}
  ]
}
